pIC50, pKd: −log10 of the molar value. Where two headings read alike, the source gives them in different places.
Legend:
lymphocytes = conditions: for stimulation of phospholipid methylation: dopamine (10 μM) and GTP (1 μM); for inhibition of phospholipid methylation below basal: haloperidol 1 μM with dopamine/GTP
From the text: In an early hypothesis (“the transmethylation hypothesis”), a defect resulting in the formation of hallucinogens was proposed. […] To determine whether D4 receptor-dependent phospholipid methylation was altered in individuals with schizophrenia, males ages 27-70 with well documented schizophrenia by DSM-IV criteria, were studied and compared with normal controls.
To determine whether D4 receptor-dependent phospholipid methylation was altered in schizophrenia, the labelling of phospholipids by [^3H]-methyl-methionine in lymphocytes obtained from people with schizophrenia (as defined by DSM IV diagnostic criteria Diagnostic and Statistical Manual of Mental Disorders (4th Edition), American Psychiatric Association, Washington, D.C., […], pp. 759-764) under medical treatment) was measured as compared to lymphocytes from healthy controls. Lymphocytes were isolated as previously described (De La Rosa et al., J. Biol. Chem. 267:10699, 1992) and aliquots of 4×10^6 cells were resuspended in Hank's balanced salt solution containing 8 μCi/ml [^3H-methyl]methionine for 60 min. […] Incorporation of [^3H-methyl] label into phospholipids was determined as described in Example I.

SK-N-MC cells = SK-N-MC cells grown in the presence of nucleosides
D4 receptor = biological target: T1, D4 receptor (Homo sapiens, UniProt P21917); test: [14C] formate-labelled phospholipid methylation in CHO/D4 cells; assay type: cell-based; conditions: absence of agonist
T1 construct: expressed in transfected cells; host or cells: CHO cells
T1 sequence (P21917 1-419): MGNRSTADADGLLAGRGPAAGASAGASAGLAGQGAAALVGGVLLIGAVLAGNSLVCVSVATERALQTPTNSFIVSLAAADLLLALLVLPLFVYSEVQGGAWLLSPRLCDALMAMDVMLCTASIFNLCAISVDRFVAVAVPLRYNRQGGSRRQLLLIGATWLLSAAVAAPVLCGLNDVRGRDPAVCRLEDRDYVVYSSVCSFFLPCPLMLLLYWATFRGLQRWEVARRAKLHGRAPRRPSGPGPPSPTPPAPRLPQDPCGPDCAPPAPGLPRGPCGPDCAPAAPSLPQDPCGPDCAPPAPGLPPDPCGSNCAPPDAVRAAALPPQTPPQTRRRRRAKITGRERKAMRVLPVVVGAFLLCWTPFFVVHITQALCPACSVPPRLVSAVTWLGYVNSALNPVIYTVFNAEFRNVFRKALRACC
Method: CHO cells transfected with the D4 receptor gene were fed with minimum essential medium (alpha modifications, with or without nucleosides) (pH 7.2) containing 2 mM L-glutamine, W/G418 antibiotic (400 mg/L), donor horse serum (2.5%), fetal bovine serum (2.5%), penicillin/streptomycin/fungizone (1%), CuSO4 (10^−6M). Cells (200,000 cells/well) were plated in 6-well- plates and placed in 5% CO2 incubator at 37° C.
Two-day-old confluent, cultured D4-transfected CHO cells were used for assay. The pH of Hank's balanced buffer (HBSS) was adjusted to pH 7.4 using sodium bicarbonate buffer. [^14C]-formic acid (1 μCi/ml) and pharmacological agents were added to HBSS. Feeding medium was removed from the well and then 600 μl of the HBSS solution with the radiolabelled formic acid (warmed to 37° C.) was added to each well of 6-well-plates. Plates were incubated at 37° C. for 30 minutes in the culture incubator. The reaction was stopped by washing once with ice-cold PBS (pH 7.4) and, after aspirating off the HBSS, 500 μl of 10% trichloroacetic acid (TCA) was added. Cells were harvested by scraping with a cell scraper and transferred into a plastic microcentrifuge tube. […] CPM values were normalized to the protein content of each sample and expressed as the mean +/− S.E.M. for the group. Differences between groups were analyzed by a t-test with p<0.05 as the criterion for significance.

dopamine D4 receptors = biological target: T2, dopamine D4 receptors (Homo sapiens, UniProt P21917); conditions: Schlacter et al., Soc. Neurosci. Abstr. 1995; read-out: reported KD; cited from earlier work
T2 sequence (P21917 1-419): T1 sequence (P21917 1-419)

[1] = lymphocytes of schizophrenia patients

NCCc1ccc(O)c(O)c1 [dopamine]
stimulation of phospholipid methylation (lymphocytes; lymphocytes of normal controls): 30%
stimulation of phospholipid methylation (lymphocytes; [1]): 165%
effect on [14C] formate-labelled phospholipid methylation, FIG. 3c (SK-N-MC cells): dose-dependent dopamine stimulation

O=C(CCCN1CCC(O)(c2ccc(Cl)cc2)CC1)c1ccc(F)cc1 [haloperidol]
effect on methyl incorporation into phospholipids, FIG. 4B (lymphocytes; both control and schizophrenia lymphocytes, dopamine 10 μM and GTP 1 mM, with or without haloperidol 1 μM): significant decrease
inhibition of phospholipid methylation below basal (lymphocytes; lymphocytes of normal controls): 25%
inhibition of phospholipid methylation below basal (lymphocytes; [1]): 39%

CC(C)Oc1cccnc1N(C)C1CCN(Cc2ccccc2)CC1 [U-101,958]
effect on [14C] formate-labelled phospholipid methylation, FIG. 3b (D4 receptor; CHO/D4 cells grown in nucleoside-free medium): dose-dependent inhibition
pIC50 (D4 receptor; CHO/D4 cells, read-out: IC50 of inhibition of phospholipid methylation): 9.70
pKd (dopamine D4 receptors): 9.00
